Data taken from article PMC4210713, “Intragenic antimicrobial peptides from Theobroma cacao” (BMC Proceedings, 2014).
Where no end group is shown, it is not given here.

System: Candida albicans ATCC 90028
Conditions: C. albicans ATCC 90028; broth microdilution, CLSI M27-A3; tested at 256 μM-0.5 μM; preliminary results

Substance: GFKDLLKGAAKALVKTVLF-NH2 [Ascaphin-8]
- MIC (minimum inhibitory concentration): 8 µM
